Data set [1] deals with metastatic pancreatic cancer. As to conditions: first-line standard of care; cited from earlier work.
A further data set has as its system BRCA1/2-mutated tumors. As to conditions: out of 24 patients with BRCA1/2-mutated tumors; cited from earlier work.
Data set [2] has as its system BRCA1/2-mutated pancreatic cancer. The settings on record: cited from earlier work.
Data set [3] in a line: Pharmacokinetic assessment of veliparib (Day 1, 3, 7 samples). Format: in vivo, human. The settings on record: 14 subjects in 5 dosing cohorts. As to the method: For the Phase I portion of the study, plasma samples were obtained from patients on Day 1 (pre-dose), Day 3, and Day 7 for pharmacokinetic (PK) assessment of veliparib. Results were compared to historical controls to identify any effect on veliparib pharmacokinetics by oxaliplatin or 5-fluorouracil. […] Next generation sequencing (NGS) of cancer-related genes was performed on tumor samples. Results from patients were captured, if ordered by the treating physician prior to enrollment, and sequencing was performed commercially by Foundation Medicine (FM), Caris Life Sciences, or through commercial germline testing labs such as Myriad or Invitae. […] Patients were defined as harboring HR-DDR mutations if a known pathogenic mutation in one of the HR-DDR genes (including but not limited to: ARID1A, ATM, ATRX, MRE11A, NBN, PTEN, RAD50/51/51B, BARD1, BLM, BRCA1, BRCA2, BRIP1, FANCA/C/D2/E/F/G/L, PALB2, WRN, CHEK2, CHEK1, BAP1, FAM175A, SLX4, MLL2, or XRCC) was identified in a blood sample (germline) or tumor sample (somatic).

Data set [4] can be described thus: Phase I dose escalation of veliparib plus FOLFOX (dose limiting toxicities, recommended Phase II dose). Format: in vivo. Here is the method: The study was designed as a single center, Phase I/II, open label study of veliparib plus FOLFOX. At the time of study initiation, the dose and schedule for modified FOLFOX (de Gramont et al., “Leucovorin and Fluorouracil With or Without Oxaliplatin as First-Line Treatment in Advanced Colorectal Cancer,” J. Clin. Oncol. 18:2938-2947 (2000), which is hereby incorporated by reference in its entirety) was used (5-fluorouracil bolus 400 mg/m^2 Day 1; leucovorin 400 mg/m^2 Day 1; oxaliplatin 85 mg/m^2 Day 1; and 5-fluorouracil 2400 mg/m^2 continuous infusion over 46 hours, Days 1-3). Each cycle was 14 days. […] With regards to the veliparib, for the Phase I portion, the dose of veliparib was escalated in a standard 3+3 design from the lowest dose of 40 mg twice a day (BID) days 1-7 of each 14-day cycle. Dose levels were 40 mg, 60 mg, 80 mg, 100 mg, 150 mg, 200 mg, and 250 mg. For the Phase II portion, the recommended Phase II dose (RP2D) was 200 mg of veliparib, though the protocol did allow for stepwise de-escalation to 150 mg and then to 100 mg for toxicity after the first cycle. […] Tumor response was assessed radiographically every 8-12 weeks using Response Evaluation Criteria in Solid Tumors criteria version 1.1 (Eisenhauer et al., “New Response Evaluation Criteria in Solid Tumours: Revised RECIST Guideline (Version 1.1),” Eur. J. Cancer 45:228-247 (2009), which is hereby incorporated by reference in its entirety). […] The primary objective of the Phase I portion was to determine the recommended Phase II dose, with the primary endpoint being adverse events, as measured by the National Cancer Institute Common Terminology Criteria for Adverse Events, Version 4.03, which is hereby incorporated by reference in its entirety. […]
The primary objective of the Phase I portion of the trial was to determine the recommended Phase II dose, by assessing the safety and tolerability as determined by adverse events, defined by the National Cancer Institute Common Terminology Criteria for Adverse Events, Version 4.03, which is hereby incorporated by reference in its entirety. […]

The values below come from US20220211657A1, “METHODS OF TREATING GASTROINTESTINAL CANCERS AND TUMORS THEREOF USING COMBINATION THERAPY” (GEORGETOWN UNIVERSITY, priority 2019, published 2022).

As for `Nc1ccn([C@@H]2O[C@H](CO)[C@@H](O)C2(F)F)c(=O)n1` [gemcitabine], in data set [1], the response rate was 7%.
As for `O=C(c1cc(Cc2n[nH]c(=O)c3ccccc23)ccc1F)N1CCN(C(=O)C2CC2)CC1` [olaparib], the patients who responded in the data set with BRCA1/2-mutated tumors is given as 4 patients.
Consider `CNCc1ccc(-c2[nH]c3cc(F)cc4c3c2CCNC4=O)cc1` [rucaparib], for which, in data set [2] (in vivo), the “patients who did not respond to platinum but did respond” value is listed as “two”. Besides, the responses in data set [2] (out of 19 patients with BRCA1/2-mutated pancreatic cancer) is given as 4.
Take `C[C@]1(c2nc3c(C(N)=O)cccc3[nH]2)CCCN1` [veliparib]: the “impact of co-administration of FOLFOX on veliparib pharmacokinetics” value in data set [3] is recorded as “no apparent impact”. For the same compound, the “protocol-defined dose limiting toxicity” value in data set [4] (human, in vivo) is “treatment delay of >3 weeks”. Further, the dose limiting toxicities entry in data set [4] (in vivo) is “one”. Further, the “recommended Phase II dose” value in data set [4] (veliparib BID days 1-7 of each 14-day cycle plus FOLFOX) is given as 200 mg.
